Results published in patent publication US12414969B2, “Methods and compositions for reducing clostridium difficile infection” (priority 2014, dated 2025).

System: C. difficile
Assay: Addition of secondary bile acids to culture media, C. difficile growth
Details: bile acid added to culture media

C[C@H](CCC(=O)O)[C@H]1CC[C@H]2[C@@H]3CC[C@@H]4C[C@H](O)CC[C@]4(C)[C@H]3C[C@H](O)[C@]12C [DCA, deoxycholic acid]
C. difficile growth inhibition in culture media: inhibits c. difficile growth
